Our source for the Ki values is US8232269B2, “Amide compounds useful in therapy” (Pfizer Inc., priority 2008, dated 2012).

The test addresses T1, Progesterone Receptor (PR) (Homo sapiens, UniProt P06401).
T1 construct: endogenous in cells; host or cells: T47D human breast mammary carcinoma cells
T1 sequence (P06401 1-933): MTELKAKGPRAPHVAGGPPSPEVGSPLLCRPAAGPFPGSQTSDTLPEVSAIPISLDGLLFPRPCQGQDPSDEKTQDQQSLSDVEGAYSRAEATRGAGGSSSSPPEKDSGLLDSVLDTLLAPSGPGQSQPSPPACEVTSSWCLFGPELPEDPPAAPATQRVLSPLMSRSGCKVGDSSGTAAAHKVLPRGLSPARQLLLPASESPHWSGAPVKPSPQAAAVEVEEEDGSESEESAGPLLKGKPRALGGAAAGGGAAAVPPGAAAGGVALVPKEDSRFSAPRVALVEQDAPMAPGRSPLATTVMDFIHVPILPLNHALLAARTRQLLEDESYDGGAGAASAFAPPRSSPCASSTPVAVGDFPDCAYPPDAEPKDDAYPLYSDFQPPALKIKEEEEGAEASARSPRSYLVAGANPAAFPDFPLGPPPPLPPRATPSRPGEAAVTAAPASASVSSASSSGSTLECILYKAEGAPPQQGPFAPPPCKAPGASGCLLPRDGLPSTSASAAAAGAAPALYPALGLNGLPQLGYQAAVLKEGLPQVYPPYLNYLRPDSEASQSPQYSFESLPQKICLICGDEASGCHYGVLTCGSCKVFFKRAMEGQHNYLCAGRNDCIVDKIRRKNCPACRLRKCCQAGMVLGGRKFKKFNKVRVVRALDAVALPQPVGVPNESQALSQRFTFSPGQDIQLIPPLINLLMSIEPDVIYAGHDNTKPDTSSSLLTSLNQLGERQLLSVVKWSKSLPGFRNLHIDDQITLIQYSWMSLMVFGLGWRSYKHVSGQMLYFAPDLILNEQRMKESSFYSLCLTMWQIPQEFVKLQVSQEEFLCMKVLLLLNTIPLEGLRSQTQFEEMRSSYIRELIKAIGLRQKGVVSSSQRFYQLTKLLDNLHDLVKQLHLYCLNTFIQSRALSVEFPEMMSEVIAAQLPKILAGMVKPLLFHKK
As to the kind of experiment: In vitro functional assay for progesterone receptor (PR) antagonists: inhibition of progesterone-induced alkaline phosphatase expression in T47D cells. The format is cell-based. The settings on record: antagonist format, 5 nM progesterone, Ki calculated from IC50 with the Cheng-Prusoff equation. In short, it runs like this:
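Antagonist format: T47D cells (8750/well, phenol red-free DMEM + 5% CS-FCS) given half-log compound dilutions plus 5 nM progesterone (final), incubated overnight (≥16 h) at 37 °C. Alkaline phosphatase read by CSPD chemiluminescence after freeze-thaw lysis; 0.1 μM RU-486 final defines minimum.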
In general, Ki refers to the equilibrium dissociation constant of an inhibitor or competing ligand from its target. For `CC(C)n1nc(-c2ccc(C#N)cc2)c(C2CC2)c1C(=O)N[C@H]1CCOC1=O` [Example 24, 3-(4-Cyanophenyl)-4-cyclopropyl-1-isopropyl-N-[(3S)-2-oxotetrahydrofuran-3-yl]-1H-pyrazole-5-carboxamide], the Ki was 19.4 nM.

`CNC(=O)CNC(=O)c1c(C2CC2)c(-c2ccc(C#N)cc2)nn1C(C)C` [Example 25, 3-(4-Cyanophenyl)-4-cyclopropyl-1-isopropyl-N-[2-(methylamino)-2-oxoethyl]-1H-pyrazole-5-carboxamide]: the Ki is 24.5 nM.

With `CC(C)n1nc(-c2ccc(C#N)cc2)c(C2CC2)c1C(=O)NCCCN1CCCC1=O` [Example 26, 3-(4-Cyanophenyl)-4-cyclopropyl-1-isopropyl-N-[3-(2-oxopyrrolidin-1-yl)propyl]-1H-pyrazole-5-carboxamide], the Ki was 86.1 nM.

As for `COC(=O)C(C)(C)NC(=O)c1c(C2CC2)c(-c2ccc(C#N)cc2)nn1C(C)C` [Example 27], the Ki is 161 nM.

Consider `CC(C)n1nc(-c2ccc(C#N)cc2)c(C2CC2)c1C(=O)NCCN` [Example 28, N-(2-Aminoethyl)-3-(4-cyanophenyl)-4-cyclopropyl-1-isopropyl-1H-pyrazole-5-carboxamide], for which the Ki was 171 nM.

Consider `CC(C)n1nc(-c2ccc(C#N)cc2)c(C2CC2)c1C(=O)NCC(C)(C)N` [Example 29, N-(2-amino-2-methylpropyl)-3-(4-cyanophenyl)-4-cyclopropyl-1-isopropyl-1H-pyrazole-5-carboxamide], for which the Ki was 235 nM.

Consider `CC(C)n1nc(-c2ccc(C#N)cc2)c(C2CC2)c1C(=O)NCc1cnn(C)c1` [Example 30, 3-(4-Cyanophenyl)-4-cyclopropyl-1-isopropyl-N-[(1-methyl-1H-pyrazol-4-yl)methyl]-1H-pyrazole-5-carboxamide], for which the Ki is 30.9 nM.

With `CC(C)n1nc(-c2ccc(C#N)cc2)c(C2CC2)c1C(=O)N[C@@H]1CC[C@H](O)C1` [Example 31, 3-(4-Cyanophenyl)-4-cyclopropyl-N-[(1R,3S)-3-hydroxycyclopentyl]-1-isopropyl-1H-pyrazole-5-carboxamide], the Ki is 36.3 nM.

In the case of `CC(C)n1nc(-c2ccc(C#N)cc2)c(C2CC2)c1C(=O)N[C@H]1C[C@@H](O)C1` [Example 32, 3-(4-Cyanophenyl)-4-cyclopropyl-N-(cis-3-hydroxycyclobutyl)-1-isopropyl-1H-pyrazole-5-carboxamide], the Ki was 34.6 nM.

Regarding `CC[C@H](C)NC(=O)c1c(C2CC2)c(-c2ccc(C#N)cc2)nn1C(C)C` [Example 33, 3-(4-Cyanophenyl)-4-cyclopropyl-1-isopropyl-N-[(1S)-1-methylpropyl]-1H-pyrazole-5-carboxamide], the Ki was 7.11 nM.

As to `CC(C)n1nc(-c2ccc(C#N)cc2)c(C2CC2)c1C(=O)NCC(C)(C)C` [Example 34, 3-(4-Cyanophenyl)-4-cyclopropyl-N-(2,2-dimethylpropyl)-1-isopropyl-1H-pyrazole-5-carboxamide], the Ki is 18.9 nM.

With `CC[C@@H](C)NC(=O)c1c(C2CC2)c(-c2ccc(C#N)cc2)nn1C(C)C` [Example 35, 3-(4-Cyanophenyl)-4-cyclopropyl-1-isopropyl-N-[(1R)-1-methylpropyl]-1H-pyrazole-5-carboxamide], the Ki is 11.2 nM.

Regarding `CCNC(=O)CNC(=O)c1c(C2CC2)c(-c2ccc(C#N)cc2)nn1C(C)C` [Example 42, 3-(4-Cyanophenyl)-4-cyclopropyl-N-[2-(ethylamino)-2-oxoethyl]-1-isopropyl-1H-pyrazole-5-carboxamide], the Ki was 27.3 nM.

For `CC(C)n1nc(-c2ccc(C#N)cc2)c(C2CC2)c1C(=O)NC1CCOCC1` [Example 43], the Ki was 26 nM.

Regarding `CNC(=O)c1c(C2CC2)c(-c2ccc(C#N)cc2)nn1C(C)C` [Example 46, 3-(4-Cyanophenyl)-4-cyclopropyl-1-isopropyl-N-methyl-1H-pyrazole-5-carboxamide], the Ki was > 2010 nM.

Take `CC(C)n1nc(-c2ccc(C#N)cc2)c(C2CC2)c1C(=O)NCC(F)(F)F` [Example 48, 3-(4-Cyanophenyl)-4-cyclopropyl-1-isopropyl-N-(2,2,2-trifluoroethyl)-1H-pyrazole-5-carboxamide]: the Ki is 5.27 nM.

`CC(C)n1nc(-c2ccc(C#N)cc2)c(C2CC2)c1C(=O)NCC1CC1` [Example 49, 3-(4-Cyanophenyl)-4-cyclopropyl-N-(cyclopropylmethyl)-1-isopropyl-1H-pyrazole-5-carboxamide]: the Ki is 4.94 nM.

`CC(C)n1nc(-c2ccc(C#N)cc2)c(C2CC2)c1C(=O)NC1CCC1` [Example 50, 3-(4-Cyanophenyl)-N-cyclobutyl-4-cyclopropyl-1-isopropyl-1H-pyrazole-5-carboxamide]: the Ki is 3.59 nM.

Regarding `CC(C)n1nc(-c2ccc(C#N)cc2)c(C2CC2)c1C(=O)N(C)CC1CC1` [Example 51, 3-(4-Cyanophenyl)-4-cyclopropyl-N-(cyclopropylmethyl)-1-isopropyl-N-methyl-1H-pyrazole-5-carboxamide], the Ki is 4.65 nM.

For `CC(C)n1nc(-c2ccc(C#N)cc2)c(C2CC2)c1C(=O)NC1CCOC1` (stereo not drawn) [Example 52, 3-(4-Cyanophenyl)-4-cyclopropyl-1-isopropyl-N-(tetrahydrofuran-3-yl)-1H-pyrazole-5-carboxamide], the Ki was 5.7 nM.

Regarding `CC(C)n1nc(-c2ccc(C#N)cc2)c(C2CC2)c1C(=O)NC[C@H]1CCCO1` [Example 53, 3-(4-Cyanophenyl)-4-cyclopropyl-1-isopropyl-N-[(2R)-tetrahydrofuran-2-ylmethyl]-1H-pyrazole-5-carboxamide], the Ki is 7.38 nM.

Consider `CC(C)n1nc(-c2ccc(C#N)cc2)c(C2CC2)c1C(=O)NCCC1CC1` [Example 54, 3-(4-Cyanophenyl)-4-cyclopropyl-N-(2-cyclopropylethyl)-1-isopropyl-1H-pyrazole-5-carboxamide], for which the Ki is 8.45 nM.

Consider `CC(C)n1nc(-c2ccc(C#N)cc2)c(C2CC2)c1C(=O)NC[C@@H]1CCCO1` [Example 55, 3-(4-Cyanophenyl)-4-cyclopropyl-1-isopropyl-N-[(2S)-tetrahydrofuran-2-ylmethyl]-1H-pyrazole-5-carboxamide], for which the Ki was 13.8 nM.

Take `CC(C)n1nc(-c2ccc(C#N)cc2)c(C2CC2)c1C(=O)NC(C)(C)CO` [Example 56, 3-(4-Cyanophenyl)-4-cyclopropyl-N-(2-hydroxy-1,1-dimethylethyl)-1-isopropyl-1H-pyrazole-5-carboxamide]: the Ki is 82.6 nM.

Regarding `CC(C)n1nc(-c2ccc(C#N)cc2)c(C2CC2)c1C(=O)NC1CC1` [Example 58, 3-(4-Cyanophenyl)-N,4-dicyclopropyl-1-isopropyl-1H-pyrazole-5-carboxamide], the Ki was 6.87 nM.

Regarding `COCCNC(=O)c1c(C2CC2)c(-c2ccc(C#N)cc2)nn1C(C)C` [Example 59, 3-(4-Cyanophenyl)-4-cyclopropyl-1-isopropyl-N-(2-methoxyethyl)-1H-pyrazole-5-carboxamide], the Ki is 7.84 nM.

Turning to `CC(C)n1nc(-c2ccc(C#N)cc2)c(C2CC2)c1C(=O)NC(C)(C)C` [Example 60, N-tert-Butyl-3-(4-cyanophenyl)-4-cyclopropyl-1-isopropyl-1H-pyrazole-5-carboxamide], the Ki is 42.1 nM.
